Experimental data published in US9119884B2, “LLP2A-bisphosphonate conjugates for osteoporosis treatment” (The Regents of the University of California, priority 2010, dated 2015).
Entries after “also recorded” stand apart in the source; their conditions may differ.

Key:
[1] = test system: NOD/SCID/MPSVII mice; assay: huMSC transplantation with LLP2A-Ale in immunodeficient mice; format: in vivo, mouse
From the text: Human MSCs (huMSCs) were obtained and injected together with LLP2A-Ale to immunodeficient mice, NOD/SCID/mucopolysaccharidosis type VII (MPSVII). This mouse strain lacked the β-glucuronidase (GUSB) enzyme. The donor cells could be easily detected using biochemical detection of β-glucuronidase (See Meyerrose, T. E., et al., Stem Cells, 2007. 25(1): p. 220-7; Meyerrose, T. E., et al., Stem Cells, 2008. 26(7): p. 1713-22). At three-month of age, the mice received a single intravenous (i.v.) injection of either vehicle (100 μl PBS/mouse), huMSCs (5×10^5/100 μl/PBS/mouse), huMSCs+LLP2A (5 nM/mouse) or huMSCs+LLP2A-Ale (500 ng/mouse; total compound weight 3.5 μg, with alendronate concentration of 500 ng/mouse). The alendronate dose we used for the study was approximately one-fifth of the therapeutic dose for the treatment of osteoporosis (See Colon-Emeric, C. S., JAMA, 2006, 296(24): p. 2968-9; Ma, Y. L., et al., Endocrinology, 2003. 144(5): p. 2008-15). […] HuMSC, as shown by GUSB+red stain, were only present at the trabecular bone surface in the LLP2A-Ale-treated group (lower panel). There was no demonstrable GUSB activity in the lung, liver, kidney and LVB that received PBS (top panels) or huMSCs (middle panel). Cancellous bone mass in the vertebral body was—more than 40% higher in the group treated with MSC+LLP2A-Ale (cancellous bone volume, BV/TV 13.9±2.2%) compared to PBS (BV/TV 9.4±1.7%), MSC (BV/TV 10.2±1.9%) or MSC+LLP2A (BV/TV 10.5±0.5%) controls three weeks after a single injection of huMSC and LLP2A-Ale.
In FIG. 8, Three-month-old MSPVII mice received a single intravenous injection of either of PBS, huMSC (5×10^5) or huMSC+LLP2A or LLP2A-Ale. The mice were sacrificed 24 hours later. Following sacrifice, small portions of organ including lumbar vertebral bodies (LVB) were harvested and frozen in Optimal Cutting Temperature embedding media. The sections were stained using naphthol-AS-BI-β-Dglucuronide (GUSB) as a substrate. Representative sections from lung, liver, kidney and lumbar vertebral (LVB) trabecular bone regions were presented. […] Isolated GUSB-positive cells were also observed within bone marrow of the LVB in […] group.
The NOD-SCID MPSVII strain was the result of extensive backcrossing of the mutant GUSB allele from the B6.C-H-2^bm1/ByBirgus^mps/+ mouse onto the NOD/LtSz-scid background. Animals were bred and maintained at the Stem Cell Department of the UC Davis Medical Center under approved animal care protocols. Affected animals were generated by breeding mice heterozygous for the MPSVII mutation. Homozygous GUSB-deficient pups were identified at birth by biochemical analysis of toe tissue.
Serum levels of the amino terminal propeptide of type 1 procollagen (P1NP), osteocalcin and C-terminal telopeptides of type I collagen (CTX-I) were measured using mouse sandwich ELISA kits from Biomedical Technologies (Stroughton, Mass.) or Immunodiagnostic System (Fountain Hills, Ariz.). The manufacturer's protocols were followed and all samples were assayed in duplicate. A standard curve was generated from each kit and the absolute concentrations were extrapolated from the standard curve. The coefficients of variations (CVs) for inter-assay and intra-assay measurements were less than 10% for all assays and are similar to the manufacturer's references (Yao, W., et al., Arthritis Rheum, 2008, 58(6): p. 1674-86; Yao, W., et al., Arthritis Rheum, 2008, 58(11): p. 3485-3497).
After fixation in 4% paraformaldehyde, the right distal femurs, mid-femurs and the 5th lumbar vertebral bodies were dehydrated in graded concentrations of ethanol and xylene and embedded un-decalcified in methyl methacrylate. The frontal sections (8 μm thick) were cut using a vertical bed microtome (Leica/Jung 2265) and affixed to slides coated with a 2% gelatin solution. Unstained 8-μm-thick sections were used for assessing fluorochrome labeling and dynamic changes in bone. […]

[2] = test system: bone marrow cells undergoing osteogenic differentiation; assay: Rainbow bead cell-binding assay; format: cell-based, mouse; settings: cells cultured in osteogenic medium for 7 days, incubated with rainbow beads
Experimental: Mouse MSCs were purchased from Invitrogen (Cat#S1502-100), cultured in osteogenic medium for 7 days and incubated with rainbow beads for one hour. […] Original magnification 10× on the right and 20× on the left of the top panel.
A new color-encoding method that facilitates high-throughput screening of OBOC combinatorial libraries was developed. This method differs from the traditional methods used to monitor integrin expressions in the MSCs, i.e., the use of antibody-based fluorescence-activated cell sorting (FACS) or immunoblotting. In the present method, polymer beads displaying chemical compounds or families of compounds were stained with oil-based organic dyes that are used as coding tags. […] These rainbow beads were prepared in a multiplex manner such that each ligand reacted to one or a series of integrins that were coded one color, See FIG. 7 (Luo, J., et al., J Comb Chem, 2008, 10(4): p. 599-604). This rainbow bead technique was then applied to determine the integrin profile on the cell surfaces.
In FIG. 7, bone marrow cells were cultured in osteogenic medium for 7 days and incubated with rainbow beads. The purple beads that coded with LLP2A, the ligand with high affinity and specificity against α4β1, were covered with layers of cells identified by green arrows. […]

[3] = 5th lumbar vertebral body, three weeks, co-injected with huMSC
[4] = serum, three weeks, co-injected with huMSC
[5] = three weeks following huMSCs transplantation

SMILES: Cc1ccccc1NC(=O)Nc1ccc(CC(=O)N[C@@H](CCCCNC(=O)/C=C/c2cccnc2)C(=O)N[C@@H](CCCC(=O)O)C(=O)NC2(C(=O)NCCOCCOCCNC(=O)CCC(=O)NCCOCCOCCNC(=O)CCC(=O)N[C@@H](CCCCNC(=O)[C@H](N)CSC3CC(=O)N(CC4CCC(C(=O)NCCCC(O)(P(=O)(O)O)P(=O)(O)O)CC4)C3=O)C(N)=O)CCCCC2)cc1 (stereo partly drawn) [LLP2A-Ale, LLP2A-Alendronate]
- osteoblasts and osteocytes at cortical and trabecular bone regions in LVB ([1]; 3 weeks following co-injection with GFP-labeled huMSCs): increased
- mineral apposition rate [1, 3]: significant increases
- osteoblast surface [1, 3]: significant increases
- surface-based bone formation rate (BFR/BS) [1, 3]: significant increases
- huMSCs (GUSB+) on/adjacent to bone surface ([1]; 24 hours after single i.v. injection of huMSCs with compound): greatly increased; also recorded: Significant amount; also recorded: seen accumulated in bone marrow, adjacent to both trabecular and periosteal bone surfaces
- intra-cortical bone remodeling ([1]; mid-femur, three weeks, co-injected with huMSC): markedly increased
- osteocalcin [1, 4]: significant increases
- procollagen 1 N-terminal propeptide (P1NP) [1, 4]: significant increases
- cancellous bone mass in the vertebral body, higher compared to controls ([1]; three weeks after single injection of huMSC and compound, vs PBS, MSC, MSC+LLP2A): more than 40%
- huMSCs (GUSB+) adjacent to/retained in bone ([1]; three weeks after transplantation, co-injected with huMSCs): only seen adjacent to the bone surface; also recorded: retention of the transplanted huMSCs in bone
- cortical bone formation [1, 5]: increases
- trabecular bone formation [1, 5]: increases
- bone formation rates at endocortical and periosteal surfaces of the mid-femur, increase ([1]; three weeks, co-injected with huMSC): 50-100%
- cancellous bone volume, BV/TV ([1]; vertebral body, three weeks after single injection of huMSC with or without compound): 13.9±2.2%
- cell binding to ligand-coded rainbow beads (affinity) [2]: high affinity
